{"source": "paper PMC12073402", "about": "“A Selective MAP3K1 Inhibitor Facilitates Discovery of NPM1 as a Member of the Network” (Molecules, 2025)", "assay_in_all_cases": "KiNativ kinome profiling in PANC-1 lysate", "assay_type_in_all_cases": "binding", "key": {"GCK": {"target": "T1, GCK (Homo sapiens, UniProt Q12851)", "T1 construct": "we opted to conduct a kinome screen (KiNativ) in PANC-1 cell lysates; endogenous in cells; host or cells: PANC-1 cell lysate", "T1 sequence (Q12851 whole entry)": "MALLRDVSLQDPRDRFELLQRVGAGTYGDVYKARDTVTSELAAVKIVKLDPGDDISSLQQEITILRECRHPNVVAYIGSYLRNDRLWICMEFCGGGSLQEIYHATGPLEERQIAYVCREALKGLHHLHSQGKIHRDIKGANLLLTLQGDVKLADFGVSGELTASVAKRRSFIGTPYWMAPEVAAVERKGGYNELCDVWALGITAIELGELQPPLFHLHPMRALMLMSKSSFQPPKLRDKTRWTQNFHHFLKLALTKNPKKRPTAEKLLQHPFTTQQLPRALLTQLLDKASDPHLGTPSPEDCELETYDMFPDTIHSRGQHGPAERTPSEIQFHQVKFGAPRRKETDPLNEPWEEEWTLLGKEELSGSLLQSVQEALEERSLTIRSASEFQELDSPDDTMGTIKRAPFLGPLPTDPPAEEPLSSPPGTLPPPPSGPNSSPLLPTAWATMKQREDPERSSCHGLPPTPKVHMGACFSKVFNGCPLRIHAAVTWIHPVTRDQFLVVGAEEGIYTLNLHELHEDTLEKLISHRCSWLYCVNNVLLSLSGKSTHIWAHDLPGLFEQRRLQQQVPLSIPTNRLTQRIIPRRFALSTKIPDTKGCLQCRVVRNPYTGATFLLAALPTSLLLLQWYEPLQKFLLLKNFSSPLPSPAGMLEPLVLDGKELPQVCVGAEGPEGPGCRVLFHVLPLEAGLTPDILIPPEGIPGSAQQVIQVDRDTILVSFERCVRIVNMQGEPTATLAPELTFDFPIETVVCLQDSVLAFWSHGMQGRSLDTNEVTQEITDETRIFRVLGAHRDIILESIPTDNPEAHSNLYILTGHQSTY", "summary_of_the_method": "(§1)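 PANC-1 lysates were incubated with 5 μM inhibitor or DMSO, then labeled with a desthiobiotin-ATP acyl-phosphate probe that biotinylates conserved kinase lysines. Tryptic peptides were streptavidin-enriched and quantified by LC-MS/MS, reported as % change in MS signal from duplicate treated and duplicate control samples.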"}, "CDK6": {"target": "T2, CDK6 (Homo sapiens, UniProt Q00534)", "T2 construct": "endogenous in cells; host or cells: PANC-1 cell lysate", "settings": "Lys2", "summary_of_the_method": "as §1"}, "NEK8": {"target": "T3, NEK8 (Homo sapiens, UniProt Q86SG6)", "T3 construct": "endogenous in cells; host or cells: PANC-1 cell lysate", "settings": "Lys2", "summary_of_the_method": "as §1"}, "NDR2": {"target": "T4, NDR2 (Homo sapiens, UniProt Q9Y2H1)", "T4 construct": "endogenous in cells; host or cells: PANC-1 cell lysate", "T4 sequence (Q9Y2H1 whole entry)": "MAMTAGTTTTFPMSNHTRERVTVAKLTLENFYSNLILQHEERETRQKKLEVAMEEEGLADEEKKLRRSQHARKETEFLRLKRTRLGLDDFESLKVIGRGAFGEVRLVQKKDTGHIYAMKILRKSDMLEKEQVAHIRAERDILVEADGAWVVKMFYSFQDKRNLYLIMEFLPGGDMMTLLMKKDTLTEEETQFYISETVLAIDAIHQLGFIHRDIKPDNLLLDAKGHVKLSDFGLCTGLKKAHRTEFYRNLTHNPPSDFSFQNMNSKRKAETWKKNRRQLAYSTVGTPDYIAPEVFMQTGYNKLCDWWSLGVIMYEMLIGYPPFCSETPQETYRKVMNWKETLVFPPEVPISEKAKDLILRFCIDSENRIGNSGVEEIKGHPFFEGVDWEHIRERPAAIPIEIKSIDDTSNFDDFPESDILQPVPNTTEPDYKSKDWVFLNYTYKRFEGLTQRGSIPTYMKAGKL", "summary_of_the_method": "as §1"}, "MST1, MST2": {"test_system": "MST1, MST2", "settings": "5 µM", "summary_of_the_method": "as §1"}, "MLK4": {"target": "T5, MLK4 (Homo sapiens, UniProt Q5TCX8)", "T5 construct": "endogenous in cells; host or cells: PANC-1", "settings": "Lys2", "summary_of_the_method": "as §1"}, "GAK": {"target": "T6, GAK (Homo sapiens, UniProt O14976)", "T6 construct": "endogenous in cells; host or cells: PANC-1 lysate", "settings": "Lys2", "summary_of_the_method": "as §1"}, "ABL, ARG": {"test_system": "ABL, ARG", "settings": "5 µM", "summary_of_the_method": "as §1"}, "BRAF, RAF1": {"test_system": "BRAF, RAF1", "settings": "5 µM; Activation Loop; IGDFGLATVKSR", "summary_of_the_method": "as §1"}, "CSK": {"target": "T7, CSK (Homo sapiens, UniProt P41240)", "T7 construct": "endogenous in cells; host or cells: PANC-1 cell lysate", "T7 sequence (P41240 whole entry)": "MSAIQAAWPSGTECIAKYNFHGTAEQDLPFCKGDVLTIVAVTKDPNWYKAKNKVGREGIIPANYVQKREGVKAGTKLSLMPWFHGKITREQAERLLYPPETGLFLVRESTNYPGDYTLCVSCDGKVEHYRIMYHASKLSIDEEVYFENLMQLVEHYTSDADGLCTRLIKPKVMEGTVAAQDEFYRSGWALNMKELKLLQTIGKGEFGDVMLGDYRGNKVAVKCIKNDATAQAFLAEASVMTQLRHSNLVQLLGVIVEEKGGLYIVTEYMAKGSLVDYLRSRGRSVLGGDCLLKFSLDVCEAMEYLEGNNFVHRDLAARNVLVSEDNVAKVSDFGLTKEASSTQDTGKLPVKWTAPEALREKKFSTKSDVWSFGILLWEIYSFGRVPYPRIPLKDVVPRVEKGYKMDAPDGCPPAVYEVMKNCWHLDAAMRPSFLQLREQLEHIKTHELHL", "summary_of_the_method": "as §1"}, "Wnk1, Wnk2, Wnk3": {"test_system": "Wnk1, Wnk2, Wnk3", "settings": "5 µM; Lys2; DLKCDNIFITGPTGSVK", "summary_of_the_method": "as §1"}, "MAP3K1": {"target": "T8, MAP3K1 (Homo sapiens, UniProt Q13233)", "T8 construct": "endogenous in cells; host or cells: PANC-1 cell lysate", "T8 sequence (Q13233 whole entry)": "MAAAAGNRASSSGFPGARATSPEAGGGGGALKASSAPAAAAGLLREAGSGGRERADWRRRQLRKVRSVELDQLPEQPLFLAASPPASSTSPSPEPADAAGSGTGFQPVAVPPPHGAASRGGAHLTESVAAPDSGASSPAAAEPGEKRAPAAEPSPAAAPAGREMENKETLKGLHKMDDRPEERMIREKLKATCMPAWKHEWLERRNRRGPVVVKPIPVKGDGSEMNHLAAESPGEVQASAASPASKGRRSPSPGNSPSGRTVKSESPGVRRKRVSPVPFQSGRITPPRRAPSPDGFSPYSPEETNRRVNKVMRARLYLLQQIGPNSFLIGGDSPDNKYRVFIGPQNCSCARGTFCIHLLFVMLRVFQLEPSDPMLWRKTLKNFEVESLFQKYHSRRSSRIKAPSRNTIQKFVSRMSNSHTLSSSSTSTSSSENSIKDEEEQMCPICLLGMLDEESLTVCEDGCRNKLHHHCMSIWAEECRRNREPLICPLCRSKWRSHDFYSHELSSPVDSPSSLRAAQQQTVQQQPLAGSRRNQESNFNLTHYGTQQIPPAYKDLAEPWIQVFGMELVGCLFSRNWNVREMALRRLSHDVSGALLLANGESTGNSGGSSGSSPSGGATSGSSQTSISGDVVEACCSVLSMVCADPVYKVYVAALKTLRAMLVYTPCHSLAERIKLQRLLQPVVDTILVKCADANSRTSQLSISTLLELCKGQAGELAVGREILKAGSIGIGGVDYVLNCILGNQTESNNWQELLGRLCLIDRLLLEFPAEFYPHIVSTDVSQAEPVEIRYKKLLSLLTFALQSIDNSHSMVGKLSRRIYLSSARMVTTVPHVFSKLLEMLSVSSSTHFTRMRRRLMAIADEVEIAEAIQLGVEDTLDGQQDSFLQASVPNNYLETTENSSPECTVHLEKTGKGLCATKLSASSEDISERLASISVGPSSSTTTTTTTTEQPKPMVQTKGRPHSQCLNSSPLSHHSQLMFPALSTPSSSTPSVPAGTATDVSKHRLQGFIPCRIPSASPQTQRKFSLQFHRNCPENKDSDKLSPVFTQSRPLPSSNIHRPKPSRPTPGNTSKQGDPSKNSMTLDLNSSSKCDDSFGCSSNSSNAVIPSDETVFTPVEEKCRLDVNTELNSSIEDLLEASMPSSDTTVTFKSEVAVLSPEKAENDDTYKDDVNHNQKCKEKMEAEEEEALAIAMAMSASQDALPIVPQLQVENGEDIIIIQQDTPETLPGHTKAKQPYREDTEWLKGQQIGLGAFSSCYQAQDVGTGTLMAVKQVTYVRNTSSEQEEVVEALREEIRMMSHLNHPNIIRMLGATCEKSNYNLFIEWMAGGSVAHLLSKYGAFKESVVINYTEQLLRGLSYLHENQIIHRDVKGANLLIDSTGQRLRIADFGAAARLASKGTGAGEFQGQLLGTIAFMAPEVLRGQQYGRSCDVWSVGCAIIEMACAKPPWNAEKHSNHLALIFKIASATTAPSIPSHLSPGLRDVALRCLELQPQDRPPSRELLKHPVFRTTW", "summary_of_the_method": "as §1"}, "[1]": {"test_system": "RSK1 domain1, RSK2 domain1, RSK3 domain1", "settings": "5 µM; Lys2; DLKPENILLDEEGHIK", "summary_of_the_method": "as §1"}, "SRPK2": {"target": "T9, SRPK2 (Homo sapiens, UniProt P78362)", "T9 construct": "endogenous in cells; host or cells: PANC-1 cell lysate", "settings": "Lys2", "summary_of_the_method": "as §1"}, "TGFbR2": {"target": "T10, TGFbR2 (Homo sapiens, UniProt P37173)", "T10 construct": "endogenous in cells; host or cells: PANC-1 cell lysate", "T10 sequence (P37173 23-567)": "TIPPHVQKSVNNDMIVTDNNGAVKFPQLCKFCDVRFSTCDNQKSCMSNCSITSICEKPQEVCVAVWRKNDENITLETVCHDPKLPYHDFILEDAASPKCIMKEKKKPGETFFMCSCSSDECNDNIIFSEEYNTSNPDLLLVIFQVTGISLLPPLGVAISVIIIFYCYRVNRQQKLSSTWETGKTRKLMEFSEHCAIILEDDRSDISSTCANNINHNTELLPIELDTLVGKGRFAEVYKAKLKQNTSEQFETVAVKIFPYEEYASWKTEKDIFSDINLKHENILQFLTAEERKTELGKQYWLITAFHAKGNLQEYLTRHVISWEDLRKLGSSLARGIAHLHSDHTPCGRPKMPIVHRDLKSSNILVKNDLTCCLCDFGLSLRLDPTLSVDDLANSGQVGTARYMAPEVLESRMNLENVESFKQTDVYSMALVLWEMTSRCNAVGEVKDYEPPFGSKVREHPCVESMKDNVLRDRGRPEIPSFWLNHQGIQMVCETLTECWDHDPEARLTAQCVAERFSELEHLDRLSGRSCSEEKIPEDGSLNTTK", "settings": "Lys2", "summary_of_the_method": "as §1"}, "QSK": {"target": "T11, QSK (Homo sapiens, UniProt Q9Y2K2)", "T11 construct": "endogenous in cells; host or cells: PANC-1 cell lysate", "settings": "Lys1", "summary_of_the_method": "as §1"}, "LOK": {"target": "T12, LOK (Homo sapiens, UniProt O94804)", "T12 construct": "we opted to conduct a kinome screen (KiNativ) in PANC-1 cell lysates; endogenous in cells; host or cells: PANC-1 cell lysate", "T12 sequence (O94804 whole entry)": "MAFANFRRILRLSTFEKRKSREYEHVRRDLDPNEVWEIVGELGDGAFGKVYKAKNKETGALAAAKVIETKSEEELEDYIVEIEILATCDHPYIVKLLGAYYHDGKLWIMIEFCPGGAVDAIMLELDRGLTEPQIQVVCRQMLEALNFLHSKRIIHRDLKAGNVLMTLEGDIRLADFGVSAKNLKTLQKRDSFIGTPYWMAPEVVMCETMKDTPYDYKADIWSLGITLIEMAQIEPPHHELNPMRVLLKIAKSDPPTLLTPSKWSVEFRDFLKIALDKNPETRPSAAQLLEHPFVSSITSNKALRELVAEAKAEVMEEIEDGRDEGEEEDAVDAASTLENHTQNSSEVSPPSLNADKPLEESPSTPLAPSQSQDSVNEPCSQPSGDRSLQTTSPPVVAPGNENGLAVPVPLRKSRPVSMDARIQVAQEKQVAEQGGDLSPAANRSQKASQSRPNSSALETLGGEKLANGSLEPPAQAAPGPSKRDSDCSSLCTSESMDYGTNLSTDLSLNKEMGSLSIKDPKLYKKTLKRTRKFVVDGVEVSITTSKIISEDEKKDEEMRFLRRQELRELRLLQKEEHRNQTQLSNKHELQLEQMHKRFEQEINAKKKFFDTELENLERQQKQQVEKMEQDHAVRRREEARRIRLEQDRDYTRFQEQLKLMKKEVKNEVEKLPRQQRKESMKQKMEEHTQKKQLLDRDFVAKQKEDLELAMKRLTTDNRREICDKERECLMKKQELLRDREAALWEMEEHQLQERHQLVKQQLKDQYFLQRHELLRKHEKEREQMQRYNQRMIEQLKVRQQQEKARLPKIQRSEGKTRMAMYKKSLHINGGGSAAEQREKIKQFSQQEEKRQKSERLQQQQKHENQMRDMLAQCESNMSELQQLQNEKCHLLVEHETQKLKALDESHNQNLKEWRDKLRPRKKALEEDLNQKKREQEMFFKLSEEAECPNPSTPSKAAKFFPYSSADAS", "summary_of_the_method": "as §1"}, "NEK6, NEK7": {"test_system": "NEK6, NEK7", "settings": "5 µM; Lys2; DIKPANVFITATGVVK", "summary_of_the_method": "as §1"}, "MAP2K3": {"target": "T13, MAP2K3 (Homo sapiens, UniProt P46734)", "T13 construct": "endogenous in cells; host or cells: PANC-1 cell lysate", "T13 sequence (P46734 1-347)": "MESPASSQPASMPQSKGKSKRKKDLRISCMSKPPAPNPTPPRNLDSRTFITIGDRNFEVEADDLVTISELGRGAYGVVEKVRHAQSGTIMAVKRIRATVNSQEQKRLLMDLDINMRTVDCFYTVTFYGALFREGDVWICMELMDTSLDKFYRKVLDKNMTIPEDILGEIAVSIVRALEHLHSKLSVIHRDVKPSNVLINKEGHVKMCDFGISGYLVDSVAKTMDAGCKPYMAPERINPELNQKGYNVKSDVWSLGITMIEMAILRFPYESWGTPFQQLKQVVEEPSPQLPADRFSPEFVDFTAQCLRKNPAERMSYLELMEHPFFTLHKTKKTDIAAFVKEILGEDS", "summary_of_the_method": "as §1"}, "CASK": {"target": "T14, CASK (Homo sapiens, UniProt O14936)", "T14 construct": "endogenous in cells; host or cells: PANC-1 cell lysate", "settings": "Lys1", "summary_of_the_method": "as §1"}}, "data": [{"smiles": "Cn1cc(-c2cnc3ccc(NC(=O)Nc4ccc(F)c(C(F)(F)F)c4)cc3n2)cn1", "note": "[51-106, 1-(4-Fluoro-3-(trifluoromethyl)phenyl)-3-(3-(1-methyl-1H-pyrazol-4-yl)quinoxalin-6-yl)urea]", "values": [{"measurement": "inhibition at 5 µM", "setting": "GCK; Lys1, DTVTSELAAVKIVK", "value": 18.3, "unit": "%"}, {"measurement": "inhibition at 5 µM", "setting": "GCK; Lys2, DIKGANLLLTLQGDVK", "value": 3.9, "unit": "%"}, {"measurement": "inhibition at 5 µM", "setting": "CDK6", "value": "≤ 0", "unit": "%"}, {"measurement": "inhibition at 5 µM", "setting": "NEK8", "value": "≤ 0", "unit": "%"}, {"measurement": "inhibition at 5 µM", "setting": "NDR2; Lys1, DTGHIYAMKILR", "value": "≤ 0", "unit": "%"}, {"measurement": "inhibition at 5 µM", "setting": "NDR2; Lys2, DIKPDNLLLDAK", "value": 7.6, "unit": "%"}, {"measurement": "% Inhibition", "setting": "MST1, MST2; ATP Loop, LADFGVAGQLTDTMAKR", "value": 2.7, "unit": "%"}, {"measurement": "% Inhibition", "setting": "MST1, MST2; Lys2, DIKAGNILLNTEGHAK", "value": "NB (NB = No Binding (≤ 0))"}, {"measurement": "inhibition at 5 µM", "setting": "MLK4", "value": "≤ 0", "unit": "%"}, {"measurement": "inhibition at 5 µM", "setting": "GAK", "value": 1, "unit": "%"}, {"measurement": "% Inhibition", "setting": "ABL, ARG; Activation Loop, LMTGDTYTAHAGAKFPIK", "value": "NB (NB = No Binding (≤ 0))"}, {"measurement": "% Inhibition", "setting": "ABL, ARG; Lys1, YSLTVAVKTLK", "value": 3.5, "unit": "%"}, {"measurement": "% Inhibition", "setting": "ABL, ARG; Lys1, YSLTVAVKTLKEDTMEVEEFLK", "value": "NB (NB = No Binding (≤ 0))"}, {"measurement": "% Inhibition", "setting": "BRAF, RAF1", "value": 12.7, "unit": "%"}, {"measurement": "% Inhibition", "setting": "CSK; 5 µM, ATP Loop, VSDFGLTKEASSTQDTGKLPVK", "value": "NB (NB = No Binding (≤ 0))"}, {"measurement": "inhibition at 5 µM", "setting": "CSK; Lys1, VAVKCIK", "value": "≤ 0", "unit": "%"}, {"measurement": "% Inhibition", "setting": "Wnk1, Wnk2, Wnk3", "value": 10.6, "unit": "%"}, {"measurement": "MAP3K1 inhibition compared to any other kinase in the panel", "setting": "MAP3K1; 5 μM, 328 quantified kinases", "value": 2.5, "unit": "fold"}, {"measurement": "% Inhibition", "setting": "MAP3K1; 5 µM, Lys2, DVKGANLLIDSTGQR", "value": 78, "unit": "%"}, {"measurement": "inhibition at 5 µM", "setting": "MAP3K1; 5 µM, Lys2, DVKGANLLIDSTGQR", "value": 78.1, "unit": "%"}, {"measurement": "% Inhibition", "setting": "[1]", "value": "NB (NB = No Binding (≤ 0))"}, {"measurement": "inhibition at 5 µM", "setting": "SRPK2", "value": "≤ 0", "unit": "%"}, {"measurement": "inhibition at 5 µM", "setting": "TGFbR2", "value": 8.9, "unit": "%"}, {"measurement": "inhibition at 5 µM", "setting": "QSK", "value": "≤ 0", "unit": "%"}, {"measurement": "% Inhibition", "setting": "LOK; 5 µM, Lys1, NKETGALAAAKVIETK", "value": "NB (NB = No Binding (≤ 0))"}, {"measurement": "inhibition at 5 µM", "setting": "LOK; Lys2, […]", "value": "≤ 0", "unit": "%"}, {"measurement": "% Inhibition", "setting": "NEK6, NEK7", "value": 24.8, "unit": "%"}, {"measurement": "inhibition at 5 µM", "setting": "MAP2K3; ATP Loop, MCDFGISGYLVDSVAKTMDAGCKPYMAPER", "value": "≤ 0", "unit": "%"}, {"measurement": "inhibition at 5 µM", "setting": "MAP2K3; Lys1, HAQSGTIMAVKR", "value": "≤ 0", "unit": "%"}, {"measurement": "inhibition at 5 µM", "setting": "MAP2K3; Lys2, DVKPSNVLINK", "value": 18.5, "unit": "%"}, {"measurement": "inhibition at 5 µM", "setting": "CASK", "value": "≤ 0", "unit": "%"}]}]}
